Data reported in patent publication US9340819B2, “Method for detecting the presence of carbapenemase-producing bacteria in a sample” (priority 2011, dated 2016).
Values after ≈ are worked out from the molar mass of the structure shown.

Assays:
K. pneumoniae = test: MIC of carbapenem by Etest (Example 2); type: cell-based, Klebsiella pneumoniae
Description: (§1) All strains had previously been characterized for their β-lactamase content at the molecular level. Minimum inhibitory concentration of carbapenem were determined using the Etest® (AB bioMérieux, Solna, Sweden) and results were recorded according to US guidelines (CLSI), as updated in 2011.

E. coli = test: MIC of carbapenem by Etest (Example 2); type: cell-based, Escherichia coli
Description: as §1

P. rettgeri = test: MIC of carbapenem by Etest (Example 2); type: cell-based, Proteus rettgeri
Description: as §1

P. stuartii = test: MIC of carbapenem by Etest (Example 2); type: cell-based, Providencia stuartii; conditions: P. stuartii NDM-1, n=1
Description: as §1

S. marcescens = test: MIC of carbapenem by Etest (Example 2); type: cell-based, Serratia marcescens
Description: as §1

C. freundii = test: MIC of carbapenem by Etest (Example 2); type: cell-based, Citrobacter freundii
Description: as §1

P. stutzeri = test: Susceptibility testing by Etest on Mueller-Hinton agar (Example 3); type: cell-based; conditions: Stutzerimonas stutzeri
Description: (§2) Susceptibility testing was performed using the Etest® (bioMérieux; La Balmes-les-Grottes, France) on Mueller-Hinton agar plates (Becton Dickinson, Le Pont de Chaix, France) at 37° C. and results were recorded according to US guidelines (CLSI), as updated in 2012. The breakpoints for imipenem, meropenem and doripenem are as follows; susceptibility (S)≦2, and resistance (R)≧8 μg/ml.

P. putida = test: as above; type: cell-based; conditions: Pseudomonas putida
Description: as §2

P. fluorescens = test: as above; type: cell-based; conditions: Pseudomonas fluorescens
Description: as §2

E. asburiae = test: MIC of carbapenem by Etest (Example 2); type: cell-based, Enterobacter asburiae; conditions: E. asburiae IMI-2, n=1
Description: as §1

P. mirabilis = test: MIC of carbapenem by Etest (Example 2); type: cell-based, Proteus mirabilis; conditions: Plasmid mediated AmpC or chromosomal AmpC + decreased membrane permeability; P. mirabilis ACC-1, n=1
Description: as §1

K. ozonae = test: MIC of carbapenem by Etest (Example 2); type: cell-based; conditions: K. ozonae KPC-3, n=1
Description: as §1

Salmonella spp. = test: MIC of carbapenem by Etest (Example 2); type: cell-based; conditions: Salmonella spp. KPC-2, n=1
Description: as §1

E. sakazaki = test: MIC of carbapenem by Etest (Example 2); type: cell-based; conditions: ESBL + decreased membrane permeability; E. sakazaki CTX-M-15, n=1
Description: as §1

M. morganii = test: MIC of carbapenem by Etest (Example 2); type: cell-based, Morganella morganii; conditions: Plasmid mediated AmpC or chromosomal AmpC + decreased membrane permeability; M. morganii Overexpressed cephalosporinase, n=2
Description: as §1

E. cloacae = test: MIC of carbapenem by Etest (Example 2); type: cell-based, Enterobacter cloacae
Description: as §1

E. aerogenes = test: MIC of carbapenem by Etest (Example 2); type: cell-based, Enterobacter aerogenes
Description: as §1

Compound: C[C@@H](O)[C@H]1C(=O)N2C(C(=O)O)=C(S[C@@H]3CN[C@H](C(=O)N(C)C)C3)[C@H](C)[C@H]12 [MER, meropenem]
- MICs range (K. pneumoniae; ESBL + decreased membrane permeability, K. pneumoniae SHV-2a, n=1): 0.38 mg/L
- MICs range (K. pneumoniae; ESBL + decreased membrane permeability, K. pneumoniae SHV-28, n=1): 1 mg/L
- MICs range (K. pneumoniae; ESBLs, K. pneumoniae CTX-M-3, n=1): 0.12 mg/L
- MICs range (K. pneumoniae; ESBLs, K. pneumoniae CTX-M-14, n=1): 0.12 mg/L
- MICs range (K. pneumoniae; ESBLs, K. pneumoniae CTX-M-15, n=3): 0.12 mg/L
- MICs range (K. pneumoniae; K. pneumoniae IMP-1, n=5): 1 to 8 mg/L
- MICs range (K. pneumoniae; K. pneumoniae IMP-8, n=2): 0.5 mg/L
- MICs range (K. pneumoniae; K. pneumoniae KPC-3, n=3): 1 to 8 mg/L
- MICs range (K. pneumoniae; K. pneumoniae NDM-4, n=1): >32 mg/L
- MICs range (K. pneumoniae; K. pneumoniae OXA-181, n=2): 0.5 to 1 mg/L
- MICs range (K. pneumoniae; K. pneumoniae VIM-19, n=1): 4 mg/L
- MICs range (K. pneumoniae; Plasmid mediated AmpC or chromosomal AmpC + decreased membrane permeability, K. pneumoniae DHA-1, n=1): >32 mg/L
- MICs range (K. pneumoniae; Plasmid mediated AmpC or chromosomal AmpC + decreased membrane permeability, K. pneumoniae DHA-2, n=1): 0.12 mg/L
- MICs range (E. coli; E. coli IMP-1, n=2): 0.5 to 1 mg/L
- MICs range (E. coli; E. coli IMP-8, n=1): 3 mg/L
- MICs range (E. coli; E. coli KPC-2, n=5): 0.5 to 2 mg/L
- MICs range (E. coli; E. coli NDM-1, n=7): 1 to 16 mg/L
- MICs range (E. coli; E. coli OXA-48, n=6): 0.12 to 1 mg/L
- MICs range (E. coli; E. coli VIM-1, n=2): 0.5 to 1 mg/L
- MICs range (E. coli; E. coli VIM-2, n=2): 0.38 to 0.5 mg/L
- MICs range (E. coli; E. coli VIM-19, n=1): 4 mg/L
- MICs range (E. coli; ESBLs, E. coli CTX-M-1, n=1): 0.12 mg/L
- MICs range (E. coli; ESBLs, E. coli CTX-M-3, n=1): 0.12 mg/L
- MICs range (E. coli; ESBLs, E. coli CTX-M-14, n=2): 0.12 mg/L
- MICs range (E. coli; ESBLs, E. coli CTX-M-15, n=2): 0.12 mg/L
- MICs range (E. coli; ESBLs, E. coli VEB-1, n=1): 0.12 mg/L
- MICs range (E. coli; Plasmid mediated AmpC or chromosomal AmpC + decreased membrane permeability, E. coli ACC-1, n=1): 0.12 mg/L
- MICs range (E. coli; Plasmid mediated AmpC or chromosomal AmpC + decreased membrane permeability, E. coli CMY-2, n=1): 0.12 mg/L
- MICs range (E. coli; Plasmid mediated AmpC or chromosomal AmpC + decreased membrane permeability, E. coli CMY-10, n=1): 0.12 mg/L
- MICs range (E. coli; Plasmid mediated AmpC or chromosomal AmpC + decreased membrane permeability, E. coli DHA-1, n=1): 0.12 mg/L
- MICs range (E. coli; Plasmid mediated AmpC or chromosomal AmpC + decreased membrane permeability, E. coli Extended spectrum cephalosporinase, n=1): 0.12 mg/L
- MICs range (E. coli; Plasmid mediated AmpC or chromosomal AmpC + decreased membrane permeability, E. coli Overexpressed cephalosporinase, n=1): 2 mg/L
- MICs range (P. rettgeri; P. rettgeri NDM-1, n=1): 1.5 mg/L
- MICs range (P. rettgeri; P. rettgeri OXA-181, n=1): 2 mg/L
- MICs range (P. stuartii): 1.5 mg/L
- MICs range (S. marcescens; S. marcescens IMP-11, n=1): 2 mg/L
- MICs range (S. marcescens; S. marcescens KPC-2, n=2): >32 mg/L
- MICs range (S. marcescens; S. marcescens SME-1, n=1): 12 mg/L
- MICs range (S. marcescens; S. marcescens SME-2, n=1): 12 mg/L
- MICs range (S. marcescens; S. marcescens VIM-2, n=1): >32 mg/L
- MICs range (C. freundii; C. freundii KPC-2, n=2): 1.5 to 3 mg/L
- MICs range (C. freundii; C. freundii NDM-1, n=1): >32 mg/L
- MICs range (C. freundii; ESBL + decreased membrane permeability, C. freundii TEM-3, n=1): 1 mg/L
- MIC (P. stutzeri; P. stutzeri 13, DIM-1): > 32 ng/mL
- MIC (P. stutzeri; P. stutzeri P511503100, VIM-2): > 32 ng/mL
- MIC (P. stutzeri; P. stutzeri PB207, IMP-1): 4 ng/mL (≈ 0.0104 µM)
- MIC (P. putida; CIP55, P. putida CIP 55-5, wild type, none): 3 ng/mL (≈ 0.00782 µM)
- MIC (P. putida; P. putida 9335, VIM-2): > 32 ng/mL
- MIC (P. putida; P. putida NTU 91/99, VIM-2): > 32 ng/mL
- MIC (P. putida; P. putida NTU 92/99, IMP-1): 0.19 ng/mL (≈ 0.000495 µM)
- MIC (P. fluorescens; P. fluorescens COU, VIM-2): > 32 ng/mL
- MIC (P. fluorescens; P. fluorescens, BIC-1): 4 ng/mL (≈ 0.0104 µM)
- MICs range (E. asburiae): >32 mg/L
- MICs range (P. mirabilis): 0.12 mg/L
- MICs range (K. ozonae): 2 mg/L
- MICs range (Salmonella spp.): 0.25 mg/L
- MICs range (E. sakazaki): 0.25 mg/L
- MICs range (M. morganii): 0.5 mg/L
- MICs range (E. cloacae; E. cloacae GES-5, n=1): >32 mg/L
- MICs range (E. cloacae; E. cloacae IMP-8, n=2): 0.5 to 1 mg/L
- MICs range (E. cloacae; E. cloacae KPC-2, n=7): 0.75 to 16 mg/L
- MICs range (E. cloacae; E. cloacae NDM-1, n=1): 2 mg/L
- MICs range (E. cloacae; E. cloacae NMC-A, n=1): 16 mg/L
- MICs range (E. cloacae; E. cloacae OXA-48, n=3): 0.5 to 1.5 mg/L
- MICs range (E. cloacae; ESBLs, E. cloacae CTX-M-15, n=3): 0.12 mg/L
- MICs range (E. cloacae; ESBLs, E. cloacae VEB-1, n=1): 0.12 mg/L
- MICs range (E. aerogenes; E. aerogenes KPC-2, n=1): 8 mg/L
- MICs range (E. aerogenes; Plasmid mediated AmpC or chromosomal AmpC + decreased membrane permeability, E. aerogenes Overexpressed cephalosporinase, n=1): 0.75 mg/L
